The target of one experiment is phosphorylated active hERK2 enzyme (Homo sapiens (Human), UniProt P28482). The experiment is described as follows: Active Human ERK2 (hERK2) Activity Assay (IMAP-FP). It is filed as biochemical. The conditions noted are these: Table 5, 0.5 nM hERK2, 30 μM ATP, 10 point titration, read-out: AERK2 IC50. The method, boiled down:
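IMAP detection beads in buffer with 24 mM NaCl stopped the reaction, and fluorescence polarization was read after 60 min binding.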
Chain of phosphorylated active hERK2 enzyme (P28482 whole entry): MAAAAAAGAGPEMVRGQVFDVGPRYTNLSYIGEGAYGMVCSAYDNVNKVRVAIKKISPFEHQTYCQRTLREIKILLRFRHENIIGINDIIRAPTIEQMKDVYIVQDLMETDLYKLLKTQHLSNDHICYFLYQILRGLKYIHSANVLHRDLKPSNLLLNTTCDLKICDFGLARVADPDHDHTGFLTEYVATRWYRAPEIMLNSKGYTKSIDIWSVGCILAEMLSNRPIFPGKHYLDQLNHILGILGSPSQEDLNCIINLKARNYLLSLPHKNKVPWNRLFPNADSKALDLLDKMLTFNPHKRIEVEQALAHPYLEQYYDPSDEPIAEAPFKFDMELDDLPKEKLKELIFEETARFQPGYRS
Turning to `CO[C@@H](C)CNC(=O)Nc1cc2[nH]nc(N3CCOCC3)c2cn1` [Example 17, 1-[(2S)-2-methoxypropyl]-3-(3-morpholin-4-yl-1H-pyrazolo[4,3-c]pyridin-6-yl)urea], the IC50 was determined as 11.8 nM.
Still for that read-out and setting: then `CCNc1n[nH]c2cc(NC(=O)N[C@H](C)c3ccccn3)ncc12` [Example 4, 1-[3-(ethylamino)-1H-pyrazolo[4,3-c]pyridin-6-yl]-3-[(1R)-1-pyridin-2-ylethyl]urea], with 19.5 nM.
The same measure, in the same setting: then `C[C@@H](NC(=O)Nc1cc2[nH]nc(NS(=O)(=O)C3CC3)c2cn1)c1ccccc1` [Example 52, N-[6-({[(1R)-1-phenylethyl]carbamoyl}amino)-1H-pyrazolo[4,3-c]pyridin-3-yl]cyclopropanesulfonamide], with 914 nM.
Still for that read-out and setting: then `C[C@@H](NC(=O)Nc1cc2[nH]nc(N(C)C)c2cn1)c1ccc(F)cc1` [Example 15, 1-[3-(dimethylamino)-1H-pyrazolo[4,3-c]pyridin-6-yl]-3-[(1R)-1-(4-fluorophenyl)ethyl]urea], with 17.3 nM.

Staying with this experiment, now noted: Table 6, 0.5 nM hERK2, 30 μM ATP, 10 point titration, read-out: AERK2 IC50.
In the case of `COC(=O)Nc1n[nH]c2cc(NC(=O)N[C@H](C)c3cccc(F)c3)ncc12` [Example 299, methyl [6-({[(1R)-1-(3-fluorophenyl)-ethyl]carbamoyl}-amino)-1H-pyrazolo[4,3-c]-pyridin-3-yl}-carbamate], the IC50 is 1.6 nM.
As to `CC(C)(O)[C@@H](NC(=O)Nc1cc2[nH]nc(N3CCOCC3)c2c(CO)n1)c1ccccc1` [Example 109, 1-[4-(hydroxymethyl)-3-morpholin-4-yl-1H-pyrazolo[4,3-c]-pyridin-6-yl]-3-[(1S)-2-hydroxy-2-methyl-1-phenylpropyl]urea], the IC50 came to 0.3 nM.
Same read-out and setting: then `C[C@@H](NC(=O)Nc1cc2[nH]nc(NC(=O)Cc3ccccc3)c2cn1)c1ccccc1` [Example 202, 2-phenyl-N-[6-({[(1R)-1-phenylethyl]-carbamoyl}amino)-1H-pyrazolo[4,3-c]pyridin-3-yl]-acetamide], with 0.6 nM.
Regarding `CCNc1n[nH]c2cc(NC(=O)NC(C)c3cccnc3)ncc12` (stereo not shown) [Example 283, 1-[3-(ethylamino)-1H-pyrazolo[4,3-c]pyridin-6-yl]-3-(1-pyridin-3-ylethyl)urea], the IC50 was 44.4 nM.
In the case of `C[C@@H]1CN(c2n[nH]c3cc(NC(=O)N[C@@H](c4ccccc4)C(C)(C)O)ncc23)C[C@H](C)O1` [Example 436, 1-{3-[(2R,6S)-2,6-dimethylmorpholin-4-yl]-1H-pyrazolo[4,3-c]-pyridin-6-yl}-3-[(1S)-2-hydroxy-2-methyl-1-phenylpropyl]urea], the IC50 was found to be 0.8 nM.
Still for that read-out and setting: then `CC(C)(O)[C@@H](NC(=O)Nc1cc2[nH]nc(NC(=O)N3CCC(F)(F)C3)c2cn1)c1ccc(F)cc1` [Example 131, 3,3-difluoro-N-[6-({[(1S)-1-(4-fluorophenyl)-2-hydroxy-2-methylpropyl}-carbamoyl}amino)-1H-pyrazolo[4,3-c]pyridin-3-yl]-pyrrolidine-1-carboxamide], with 1.5 nM; and `C[C@@H](NC(=O)Nc1cc2[nH]nc(NC(=O)OC(C)(C)C)c2cn1)c1ccccc1` [Example 217, tert-butyl [6-({[(1R)-1-phenylethyl}-carbamoyl}amino)-1H-pyrazolo[4,3-c]pyridin-3-yl}-carbamate], with 47.7 nM; and `COCC1CN(c2n[nH]c3cc(NC(=O)N[C@H](COC)c4ccccc4)ncc23)C1` [Example 82, 1-{3-[3-(methoxy-methyl)azetidin-1-yl]-1H-pyrazolo[4,3-c]-pyridin-6-yl}-3-[(1S)-2-methoxy-1-phenylethyl]urea], with 3.7 nM.
On the same count and under the same terms, then `Nc1n[nH]c2cc(NC(=O)NCc3cccc(F)c3)ncc12` [Example 265, 1-(3-amino-1H-pyrazolo[4,3-c]-pyridin-6-yl)-3-(3-fluorobenzyl)urea], with 24.5 nM.
For the compound `CNc1n[nH]c2cc(NC(=O)N[C@H](c3ccccc3)[C@@H]3CCCO3)ncc12` [Example 146, 1-(3-(methylamino)-1H-pyrazolo[4,3-c]pyridin-6-yl)-3-((R)-phenyl((S)-tetrahydrofuran-2-yl)methyl)urea], the IC50 is 115 nM.
Turning to `CCNc1n[nH]c2cc(NC(=O)N[C@H](C)c3cccc(F)c3)ncc12` [Example 243, 1-[3-(ethylamino)-1H-pyrazolo[4,3-c]pyridin-6-yl]-3-[(1R)-1-(3-fluorophenyl)-ethyl]urea], the IC50 worked out at 1.7 nM.
On the same count and under the same terms, then `C[C@@H](NC(=O)Nc1cc2[nH]nc(NC3CC(N(C)C)C3)c2cn1)c1ccccc1` (stereo partly drawn) [Example 169, 1-(3-{[3-(dimethylamino)-cyclobutyl]amino}-1H-pyrazolo[4,3-c]pyridin-6-yl)-3-[(1R)-1-phenylethyl]urea], with 50.2 nM; and `COC(=O)Nc1n[nH]c2cc(NC(=O)N[C@H](C)c3ccccc3)nc(C)c12` [Example 338, methyl [4-methyl-6-({[(1R)-1-phenyl-ethyl]carbamoyl}-amino)-1H-pyrazolo[4,3-c]-pyridin-3-yl]-carbamate], with 16.1 nM.
As for `CC(C)(O)[C@@H](NC(=O)Nc1cc2[nH]nc(N3CCc4ncsc4C3)c2cn1)c1ccc(F)cc1` [Example 125, 1-[3-(6,7-dihydro[1,3]thiazolo-[5,4-c]pyridin-5(4H)-yl)-1H-pyrazolo[4,3-c]pyridin-6-yl]-3-[(1S)-1-(4-fluorophenyl)-2-hydroxy-2-methylpropyl]urea], the IC50 is 0.4 nM.
`Cc1cc(Nc2n[nH]c3cc(NC(=O)N[C@H](C)c4ccccc4)ncc23)ccn1` [Example 62, 1-{3-[(2-methylpyridin-4-yl)amino]-1H-pyrazolo[4,3-c]pyridin-6-yl}-3-[(1R)-1-phenylethyl]urea]: the IC50 was determined as 14.7 nM.
The same measure, in the same setting: then `C[C@@H](O)[C@@H](NC(=O)Nc1cc2[nH]nc(N3CCC3)c2cn1)c1ccc(F)cc1` [Example 105, 1-(3-azetidin-1-yl-1H-pyrazolo[4,3-c]pyridin-6-yl)-3-[(1S,2R)-1-(4-fluorophenyl)-2-hydroxypropyl]urea], with 2.8 nM; and `C[C@@H](NC(=O)Nc1cc2[nH]nc(NCC3CCCOC3)c2cn1)c1ccccc1` (stereo partly drawn) [Example 167, 1-[(1R)-1-phenylethyl]-3-{3-[(tetrahydro-2H-pyran-3-yl-methyl)amino]-1H-pyrazolo[4,3-c]pyridin-6-yl}urea], with 4.2 nM.
Same read-out and setting: then `CCNc1n[nH]c2cc(NC(=O)NC(C(=O)N(CC)CC)c3ccc(F)cc3)ncc12` (stereo not shown) [Example 412, N,N-diethyl-2-({[3-(ethylamino)-1H-pyrazolo[4,3-c]-pyridin-6-yl]-carbamoyl}amino)-2-(4-fluoro-phenyl)acetamide], with 421 nM.
Regarding `CCNc1n[nH]c2cc(NC(=O)NC(C)c3ccc(F)nc3)ncc12` (stereo not shown) [Example 282, 1-[3-(ethylamino)-1H-pyrazolo[4,3-c]pyridin-6-yl]-3-[1-(6-fluoropyridin-3-yl)ethyl]urea], the IC50 was 34.2 nM.
The same measure, in the same setting: then `CCNc1n[nH]c2cc(NC(=O)N[C@H](C)c3ccccc3)nc(CO)c12` [Example 70, 1-[3-(ethylamino)-4-(hydroxymethyl)-1H-pyrazolo[4,3-c]-pyridin-6-yl]-3-[(1R)-1-phenylethyl]urea], with 0.6 nM; and `CCNc1n[nH]c2cc(NC(=O)N[C@H](C)c3ccccc3)nc(Cl)c12` [Example 454, 1-[4-chloro-3-(ethylamino)-1H-pyrazolo[4,3-c]pyridin-6-yl]-3-[(1R)-1-phenylethyl]urea], with 11.8 nM; and `CN(C)C[C@H](NC(=O)Nc1cc2[nH]nc(N)c2cn1)c1ccccc1` [Example 263, 1-(3-amino-1H-pyrazolo[4,3-c]-pyridin-6-yl)-3-[(1R)-2-(dimethylamino)-1-phenylethyl]urea], with 127 nM.
Same read-out and setting: then `CC(C)Nc1n[nH]c2cc(NC(=O)N[C@H](C)c3ccc(F)cc3)ncc12` [Example 340, (R)-1-(1-(4-fluorophenyl)ethyl)-3-(3-(isopropyl-amino)-1H-pyrazolo[4,3-c]-pyridin-6-yl)urea], with 1.6 nM.
For the compound `CCNc1n[nH]c2cc(NC(=O)NC3COc4ccccc43)ncc12` (stereo not shown) [Example 235, 1-(2,3-dihydro-1-benzofuran-3-yl)-3-[3-(ethylamino)-1H-pyrazolo[4,3-c]pyridin-6-yl]urea], the IC50 is 334 nM.
On the same count and under the same terms, then `C[C@@H](NC(=O)Nc1cc2[nH]nc(NC3CCC3)c2cn1)c1ccccc1` [Example 185, 1-[3-(cyclobutylamino)-1H-pyrazolo[4,3-c]pyridin-6-yl]-3-[(1R)-1-phenylethyl]urea], with 1.5 nM.
The same measure, in the same setting: then `CC(C)(O)[C@@H](NC(=O)Nc1cc2[nH]nc(N3CCOC(C(F)(F)F)C3)c2cn1)c1ccccc1` (stereo partly drawn) [Example 99, 1-[(1S)-2-hydroxy-2-methyl-1-phenylpropyl]-3-{3-[2-(trifluoromethyl)-morpholin-4-yl]-1H-pyrazolo[4,3-c]-pyridin-6-yl}urea], with 0.6 nM; and `C[C@@H](O)[C@@H](NC(=O)Nc1cc2[nH]nc(N3CC4CC3CO4)c2cn1)c1ccccc1` (stereo partly drawn) [Example 111, 1-[(1S,2R)-2-hydroxy-1-phenylpropyl]-3-[3-(2-oxa-5-azabicyclo[2.2.1]-hept-5-yl)-1H-pyrazolo[4,3-c]-pyridin-6-yl]urea], with 0.5 nM.
The same measure, in the same setting: then `C[C@@H](NC(=O)Nc1cc2[nH]nc(N3CC(C(C)(C)O)C3)c2cn1)c1ccccc1` [Example 94, 1-{3-[3-(1-hydroxy-1-methylethyl)-azetidin-1-yl]-1H-pyrazolo[4,3-c]-pyridin-6-yl}-3-[(1R)-1-phenylethyl]-urea], with 25.4 nM; and `COC(=O)Nc1n[nH]c2cc(NC(=O)NCc3ccccc3OC(F)F)ncc12` [Example 296, methyl [6-({[2-(difluoromethoxy)-benzyl]carbamoyl}-amino)-1H-pyrazolo[4,3-c]-pyridin-3-yl}-carbamate], with 2.5 nM; and `C[C@@H](NC(=O)Nc1cc2[nH]nc(NCCC(=O)N(C)C)c2cn1)c1ccccc1` [Example 348, N,N-dimethyl-N~3~-[6-({[(1R)-1-phenylethyl]-carbamoyl}amino)-1H-pyrazolo[4,3-c]pyridin-3-yl]-beta-alaninamide], with 3.1 nM.

Source of the values: patent publication US9233979B2, “Compounds that are ERK inhibitors” (Merck Sharp & Dohme Corp., priority 2012, dated 2016).
